In US8158560B2, “Insecticidal arylpyrroline compounds” (Bayer CropScience AG, priority 2009, dated 2012):

Columns and labels:
Assay type in all cases: in vivo
[1] = test system: Spodoptera litura; test: Biological Test Example 1: test against tobacco cutworm (Spodoptera litura) larvae, sweet potato leaf dip; conditions: foliar, 168 h, active compound concentration 100 ppm, third instar larvae, after 7 days, read-out: insecticidal activity
Experimental: (§1) Unless not mentioned otherwise, the test solutions were prepared as follows:
(§2) Containing as solvent: Dimethylformamide, 3 parts by weight; and as emulsifier: Polyoxyethylene alkyl phenyl ether, 1 part by weight
(§3) To prepare the test solution, 1 part by weight of an active compound is mixed with the above-mentioned amount of solvent containing the above-mentioned amount of emulsifier, and the mixture is diluted with water to the desired concentration.
Test Against Tobacco Cutworm (Spodoptera litura) Larvae
Leaves of sweet potato were immersed in the test solution at the appropriate concentration, and the leaves were dried in air. The leaves were then placed in a petri dish having a diameter of 9 cm, and ten Spodoptera litura at third instar larvae were released therein. The petri dishes were placed in a temperature-controlled chamber at 25° C.
After 2 days and 4 days more sweet potato leaves were added. After 7 days, the number of dead larvae was counted and the insecticidal activity was calculated. An insecticidal activity of 100% means that all larvae were killed, whereas an insecticidal activity of 0% means that no larva was killed. In the current test, the results of two petri dishes for each treatment were averaged.

[2] = test system: Tetranychus urticae; test: Biological Test Example 2: test against two-spotted spider mite (Tetranychus urticae), spray on kidney bean; conditions: 168 h, active compound concentration 100 ppm, adult mites, after 7 days, read-out: acaricidal activity
Experimental: as §1, §2, §3
Test Against Two-Spotted Spider Mite (Tetranvchus urticae)
50 to 100 adult mites of Tetranychus urticae were inoculated to leaves of kidney bean at two-leaf stage planted in a pot of 6 cm in diameter. After one day, test solution at the appropriate concentration was sprayed thereon in a sufficient amount using a spray gun. After the spraying, the plant pot was placed inside a greenhouse, and after 7 days, the acaricidal activity was calculated. An acaricidal activity of 100% means that all mites were killed, whereas an acaricidal activity of 0% means that no mite was killed.

[3] = test system: Aulacophora femoralis; test: Biological Test Example 3: test against cucurbit leaf beetle (Aulacophora femoralis), cucumber leaf dip; conditions: foliar, 168 h, active compound concentration 100 ppm, second instar larvae, after 7 days, read-out: insecticidal activity
Experimental: as §1, §2, §3
Test Against Cucurbit Leaf Beetle (Aulacophora femoralis)
Leaves of cucumber were immersed in the test solution at the appropriate concentration, and the leaves were dried in air. The leaves were then put in a plastic cup containing sterilized black soil and five Aulacophora femoralis at second instar larvae were released in the cup. The cups were placed in a temperature-controlled chamber at 25° C. After 7 days, the number of dead larvae was counted, and the insecticidal activity was calculated. An insecticidal activity of 100% means that all larvae were killed, whereas an insecticidal activity of 0% means that no larva was killed.

[4] = test system: organic phosphorus agent- and carbamate agent-resistant Myzus persicae; test: Biological Test Example 4: test against organic phosphorus agent- and carbamate agent-resistant green peach aphid (Myzus persicae), spray on eggplant; conditions: active compound concentration 100 ppm; after 7 days
Experimental: as §1, §2, §3
Test Against Organic Phosphorus Agent- and Carbamate Agent Resistant Green Peach Aphid (Myzus persicae)
50 to 100 head of organic phosphorous agent- and carbamate agent-resistant Myzus persicae were inoculated to leaves of eggplant at two-leaf stage, planted in a pot of 6 cm in diameter. After one day, test solution at the appropriate concentration was sprayed thereon in a sufficient amount using a spray gun. After the spraying, the plant pot was placed inside a greenhouse, and after 7 days, the insecticidal rate was calculated.
An insecticidal activity of 100% means that all aphids were killed, whereas an insecticidal activity of 0% means that no aphid was killed.

[5] = test system: Spodoptera litura L2 stage; test: Spodoptera litura root soaking test (PRODLI); conditions: 20 ppm, 4 dat
Experimental: Spodoptera litura—Root Soaking Test (PRODLI)
Insect: Spodoptera litura L2 stage;
Material: Culture media bottles for hydroponics: Plastic (A-PET) cups for test, square type;
Plant: Broccoli 5 leaf stage (ca. 12 cm high), soil around the roots was washed off just before the test;
Solvent pre-mixture “Sorpol SD” for root soaking test;
Sorpol SD: Sorpol BDB:Dimethylformamide=3:3:140
Procedure: Test solutions are prepared in the bottles at the appropriate concentration. The test plant root is dipped into the test solution in the bottle and kept in a test room. After 3 days, ⅓ part of the leaves of the plants is cut and put into the A-PET cup.
Into each test cup five larvae L2 are released, the cup is covered with a lid and stored at 25° C. and at a relative humidity of 50-60% and under 16L8D lighting conditions.
After the specified period of time the mortality in % is determined and the rate of death is calculated.

Row | SMILES | pest or weed control at 100 ppm [1] | pest or weed control at 100 ppm [2] | pest or weed control at 100 ppm [3] | insecticidal activity [4] | Efficacy/day(s) of treatment [5]
1 | Cc1cc(C2=NCC(c3cc(Cl)c(Cl)c(Cl)c3)(C(F)(F)F)C2)ccc1C(=O)NC1CSC1 (centres unmarked) [Compound 1-10, 2-methyl-N-(thietan-3-yl)-4-[3-(3,4,5-trichlorophenyl)-3-(trifluoromethyl)-3,4-dihydro-2H-pyrrol-5-yl]benzamide] | 100% | 100% | 100% | 100% | –
2 | O=C(NC1C[S+]([O-])C1)c1ccc(C2=NCC(c3cc(Cl)c(Cl)c(Cl)c3)(C(F)(F)F)C2)cc1C(F)(F)F (centres unmarked) [Compound 1-8, N-(1-Oxidothietan-3-yl)-4-[3-(3,4,5-trichlorophenyl)-3-(trifluoromethyl)-3,4-dihydro-2H-pyrrol-5-yl]-2-(trifluoromethyl)benzamide] | 100% | 100% | 100% | – | –
3 | Cc1cc(C2=NCC(c3cc(Cl)c(Cl)c(Cl)c3)(C(F)(F)F)C2)ccc1C(=O)NC1C[S+]([O-])C1 (centres unmarked) [Compound 1-11, 2-Methyl-N-(1-oxidothietan-3-yl)-4-[3-(3,4,5-trichlorophenyl)-3-(trifluoromethyl)-3,4-dihydro-2H-pyrrol-5-yl]benzamide] | 100% | 100% | 100% | – | –
4 | Cc1cc(C2=NCC(c3cc(C(F)(F)F)cc(C(F)(F)F)c3)(C(F)(F)F)C2)ccc1C(=O)NC1C[S+]([O-])C1 (centres unmarked) [Compound 1-20, 4-{3-[3,5-Bis(trifluoromethyl)phenyl]-3-(trifluoromethyl)-3,4-dihydro-2H-pyrrol-5-yl}-2-methyl-N-(1-oxidothietan-3-yl)benzamide] | 100% | 100% | 100% | – | –
5 | O=C(NC1CSC1)c1ccc(C2=NCC(c3cc(Cl)c(Cl)c(Cl)c3)(C(F)(F)F)C2)cc1Br (centres unmarked) [Compound 1-4, 2-Bromo-N-(thietan-3-yl)-4-[3-(3,4,5-trichlorophenyl)-3-(trifluoromethyl)-3,4-dihydro-2H-pyrrol-5-yl]benzamide] | 100% | – | 100% | – | –
6 | Cc1cc(C2=NCC(c3cc(Cl)c(Cl)c(Cl)c3)(C(F)(F)F)C2)ccc1C(=O)NC1CS(=O)(=O)C1 (centres unmarked) [Compound 1-12, N-(1,1-Dioxidothietan-3-yl)-2-methyl-4-[3-(3,4,5-trichlorophenyl)-3-(trifluoromethyl)-3,4-dihydro-2H-pyrrol-5-yl]benzamide] | 100% | 100% | 100% | 100% | –
7 | O=C(NC1CS(=O)(=O)C1)c1ccc(C2=NCC(c3cc(Cl)c(Cl)c(Cl)c3)(C(F)(F)F)C2)cc1C(F)(F)F (centres unmarked) [Compound 1-9, N-(1,1-Dioxidothietan-3-yl)-4-[3-(3,4,5-trichlorophenyl)-3-(trifluoromethyl)-3,4-dihydro-2H-pyrrol-5-yl]-2-(trifluoromethyl)benzamide] | 100% | 100% | 100% | 100% | –
8 | O=C(NC1CSC1)c1ccc(C2=NCC(c3cc(C(F)(F)F)cc(C(F)(F)F)c3)(C(F)(F)F)C2)cc1Br (centres unmarked) [Compound 1-104, 4-{3-[3,5-Bis(trifluoromethyl)phenyl]-3-(trifluoromethyl)-3,4-dihydro-2H-pyrrol-5-yl}-2-bromo-N-(thietan-3-yl) benzamide] | 100% | – | 100% | – | –
9 | O=C(CNC(=O)c1ccc(C2=NCC(c3cc(Cl)c(Cl)c(Cl)c3)(C(F)(F)F)C2)cc1C(F)(F)F)NC1CSC1 (centres unmarked) [Compound 3-7] | 100% | 100% | 100% | – | –
10 | O=C(NC1CSC1)c1ccc(C2=NCC(c3cc(C(F)(F)F)cc(C(F)(F)F)c3)(C(F)(F)F)C2)cc1C(F)(F)F (centres unmarked) [Compound 1-16, 4-{3-[3,5-Bis(trifluoromethyl)phenyl}-3-(trifluoromethyl)-3,4-dihydro-2H-pyrrol-5-yl]-N-(thietan-3-yl)-2-(trifluoromethyl)benzamide] | 100% | 100% | 100% | 100% | –
11 | O=C(CNC(=O)c1ccc(C2=NCC(c3cc(C(F)(F)F)cc(C(F)(F)F)c3)(C(F)(F)F)C2)cc1C(F)(F)F)NC1CSC1 (centres unmarked) [Compound 3-19, 4-{3-[3,5-Bis(trifluoromethyl)phenyl]-3-(trifluoromethyl)-3,4-dihydro-2H-pyrrol-5-yl}-N-[2-oxo-2-(thietan-3-ylamino)ethyl]-2-(trifluoromethyl)benzamide] | 100% | – | 100% | – | –
12 | O=C(NC1CSC1)c1ccc(C2=NCC(c3cc(Cl)c(Cl)c(Cl)c3)(C(F)(F)F)C2)cc1C(F)(F)F (centres unmarked) [Compound 1-7, N-(thietan-3-yl)-4-[3-(3,4,5-trichlorophenyl)-3-(trifluoromethyl)-3,4-dihydro-2H-pyrrol-5-yl]-2-(trifluoromethyl)benzamide] | 100% | 100% | 100% | 100% | –
13 | Cc1cc(C2=NCC(c3cc(C(F)(F)F)cc(C(F)(F)F)c3)(C(F)(F)F)C2)ccc1C(=O)NC1CSC1 (centres unmarked) [Compound 1-19, 4-{3-[3,5-Bis(trifluoromethyl)phenyl]-3-(trifluoromethyl)-3,4-dihydro-2H-pyrrol-5-yl}-2-methyl-N-(thietan-3-yl)benzamide] | 100% | 100% | 100% | 100% | –
14 | Cc1cc(C2=NOC(c3cc(Cl)cc(Cl)c3)(C(F)(F)F)C2)ccc1C(=O)NC1CS(=O)(=O)C1 (centres unmarked) [ExNo A10 of WO 2009/080250] | – | – | – | – | 0%/4 dat
15 | Cc1cc(C2=NCC(c3cc(Cl)cc(Cl)c3)(C(F)(F)F)C2)ccc1C(=O)NC1CS(=O)(=O)C1 (centres unmarked) [Compound T-1] | – | – | – | – | 100%/4 dat
